In brackets after ≈: the same amount, converted by molar mass.
What was measured:
Assay type in all cases: physicochemical
[1] = Suspension stability at 25° C.; details: for Solubility (μg/mL): LOQ: 0.25 μg/mL
Description: Suspension stability: Suspension stability of I-1 Form A and the 2 salt candidates was investigated in pure water, 0.5% (w/w) Tween 80 aqueous solution and 0.5% (w/w) MC (400 cP)+2% (w/w) Vitamin E TPGS aqueous solution at 25° C. for 2 h and 24 h. Target concentration was 2 mg/mL.
To confirm whether racemization occurs for the 2 salts in 0.5% (w/w) MC (400 cP)+2% (w/w) Vitamin E TPGS aqueous solution, the suspension stability in this vehicle was repeated at target concentration of 10 mg/mL. […] The hygroscopicity of these salts were further investigated.
Accurate 10 mg of I-1 Form A, 12.83 mg of I-3 Form A, 11.58 mg of I-4 Form A was weighed into a 8 mL glass vial, respectively. 5 mL of suspension vehicle was added, respectively. The salt amount used is equivalent to 10 mg anhydrous free form. These suspensions were stirred at 25° C. with 400 rpm. These suspensions were taken out at 2 hours and 24 hours, then centrifuged at 14,000 rpm for 5 min. The supernatants were analyzed by HPLC and pH meter. Solids obtained (wet cakes) were characterized by XRPD and HPLC to determine the chiral purity.
Accurate […] of I-3 Form A, 46.3 mg of I-4 Form A was weighed into a 8 mL glass vial, respectively. 4 mL of solubility medium was added, respectively. The salt amount used is equivalent to 40 mg anhydrous free form. 4 mL of the aqueous vehicle (0.5% (w/w) MC (400 cP) and 2% (w/w) Vitamin E TPGS in water) was added, respectively. These suspensions were stirred at 25° C. with 400 rpm. These suspensions were taken out at 2 hours and 24 hours, then centrifuged at 14,000 rpm for 5 min. The supernatants were analyzed by HPLC for the solubility and chiral purity and analyzed by pH meter. Solids obtained (wet cakes) were characterized by XRPD and HPLC for chiral purity.

[2] = Solution stability at 25° C.
Description: Solution stability of I-1 Form A and I-3 Form A was investigated in methanol and THF/ACN (2:1, v/v) at 25° C. Target concentration is 4 mg/mL.
Accurate 4 mg of I-1 Form A, 5.13 mg of I-3 Form A was weighed into a 8 mL glass vial, respectively. The salt amount used is equivalent to 4 mg anhydrous free form.

[3] = Salt screening (XRPD, chiral purity of hits)
Description: Based on the pKa of I-1 free form, 23 counter ions were selected as salt/cocrystal forming agents. Methanol, acetone and isopropyl acetate were used as screening solvents. 1.0 equivalent of selected counter ions/coformers was applied for salt screening. Slurry equilibration, slow evaporation and anti-solvent addition were used as crystallization methods. In total, about 70 screening experiments were conducted.
About 50 mg of I-1 Form A were added to a suitable amount of solvent and 1.0 equivalent of counter ions were added under stirring at 50° C. for 2 hours and then at 25° C. for at least 12 hours. MeOH, acetone and IPAc were used as screening solvents.
Obtained suspensions were taken out and centrifuged. Solids obtained were analyzed by XRPD and salt screening results were summarized in Table 5.1, Table 5.2, and Table 5.3.

[4] = 25° C., 2 mg/mL, 0.5%(w/w) MC(400 cP) and 2%(w/w) Vitamin E TPGS in water, 2 h, listed as I-1 Form A
[5] = 25° C., 2 mg/mL, 0.5%(w/w) MC(400 cP) and 2%(w/w) Vitamin E TPGS in water, 24 h, listed as I-1 Form A
[6] = 25° C., 2 mg/mL, 0.5%(w/w) Tween 80 in water, 2 h, listed as I-1 Form A
[7] = 25° C., 2 mg/mL, 0.5%(w/w) Tween 80 in water, 24 h, listed as I-1 Form A
[8] = 25° C., 2 mg/mL, Pure water, 2 h, listed as I-1 Form A
[9] = 25° C., 2 mg/mL, Pure water, 24 h, listed as I-1 Form A
[10] = 25° C., MeOH, 0 h, listed as I-1 Form A
[11] = 25° C., MeOH, 6 h, listed as I-1 Form A
[12] = 25° C., MeOH, 24 h, listed as I-1 Form A
[13] = 25° C., THF/ACN(2:1, v/v), 0 h, listed as I-1 Form A
[14] = 25° C., THF/ACN(2:1, v/v), 6 h, listed as I-1 Form A
[15] = 25° C., THF/ACN(2:1, v/v), 24 h, listed as I-1 Form A

With `N#Cc1c(-c2cc(NC(=O)c3cc(F)cc(C(F)(F)F)c3)c3c(c2)C(=O)N[C@H]3c2cc(F)ccc2Cl)ccc2ncnn12` [Compound I-1, (R)-N-(3-(2-chloro-5-fluorophenyl)-6-(5-cyano-[1,2,4]triazolo[1,5-a]pyridin-6-yl)-1-oxoisoindolin-4-yl)-3-fluoro-5-(trifluoromethyl)benzamide] the “physical stability in suspension (XRPD)” value ([1]; 3 vehicles, 25° C., 2 mg/mL) was “physically stable”, the racemization in suspension ([1]; 3 vehicles, 25° C., 2 mg/mL) was “no racemization” and the “Chiral purity (solids)” value ([1]; 25° C., 2 mg/mL, 0.5%(w/w) MC(400 cP) and 2%(w/w) Vitamin E TPGS in water, 2 h) was 98.7%. For the same molecule, the “Chiral purity” value [1, 4] was 64.8%, the Purity [1, 4] was 99.5% and the “Solubility” value [1, 4] was 47.9 µg/mL (≈ 78.7 µM). For the same molecule, the pH [1, 4] was 5.02, the “Chiral purity (solids)” value ([1]; 25° C., 2 mg/mL, 0.5%(w/w) MC(400 cP) and 2%(w/w) Vitamin E TPGS in water, 24 h) was 96.6% and the “Chiral purity” value [1, 5] was 97.7%. The Purity [1, 5] was 99.1%, the “Solubility” value [1, 5] was 34.5 µg/mL (≈ 56.7 µM) and the pH [1, 5] was 4.30. For the same molecule, the “Chiral purity” value [1, 6] was 83.2%, the “Chiral purity (solids)” value [1, 6] was 98.8% and the Purity [1, 6] was 99.1%. The “Solubility” value [1, 6] was 25.5 µg/mL (≈ 41.9 µM), the pH [1, 6] was 6.52 and the “Chiral purity” value [1, 7] was 93.0%. The “Chiral purity (solids)” value [1, 7] was 97.6%, the Purity [1, 7] was 99.2% and the “Solubility” value [1, 7] was 17.6 µg/mL (≈ 28.9 µM). The pH [1, 7] was 7.40, the “Solubility (μg/mL)” value ([1]; 25° C., 2 mg/mL, Pure water, 2 h) was “<LOQ” and the “Chiral purity (solids)” value [1, 8] was 98.8%. The Purity [1, 8] was 99.1%, the pH [1, 8] was 6.79 and the “Solubility (μg/mL)” value ([1]; 25° C., 2 mg/mL, Pure water, 24 h) was “<LOQ”. For the same molecule, the “Chiral purity (solids)” value [1, 9] was 96.7%, the Purity [1, 9] was 99.2% and the pH [1, 9] was 8.27. The Initial chiral purity ([1]; before suspension, listed as I-1 Form A) was “Initial chiral purity: 98.9%”, the “chemical stability in suspension” value ([1]; water, 0.5% Tween 80, 0.5% MC (400 cP)+2% Vitamin E TPGS, 25° C., 2 h and 24 h, 2 mg/mL) was “chemically stable” and the Chemical purity [2, 10] was 98.9%. For the same molecule, the Chiral purity [2, 10] was 98.9%, the Chemical purity [2, 11] was 99.0% and the Chiral purity [2, 11] was 98.9%. It also gave a Chemical purity [2, 12] of 99.1%, a Chiral purity [2, 12] of 98.9% and a Chemical purity [2, 13] of 98.6%. For the same molecule, the Chiral purity [2, 13] was 98.9%, the Chemical purity [2, 14] was 98.7% and the Chiral purity [2, 14] was 98.9%. For the same molecule, the Chemical purity [2, 15] was 99.0%, the Chiral purity [2, 15] was 98.9% and the Initial chiral purity ([2]; before dissolution, listed as I-1 Form A) was “Initial chiral purity: 99.0%”. The racemization in solution ([2]; methanol and THF/ACN (2:1, v/v), 25° C., 4 mg/mL) was “no racemization”, the “chemical stability in solution” value ([2]; methanol and THF/ACN (2:1, v/v), 25° C., at least 24 h, 4 mg/mL, listed as I-1 Form A) was “chemically stable” and the “Salt screening result (slurry crystallization)” value ([3]; 1.0 equiv. HCl, Isopropyl acetate (second block of table)) was “clear solution”. For the same molecule, the “Salt screening result (slurry crystallization)” value ([3]; 1.0 equiv. HCl, MeOH) was “− (I-1 Form A) (Free form, counter ions, or physical mixtures)”, the “Salt screening result (slurry crystallization)” value ([3]; 1.0 equiv. Hydrobromic acid, Acetone) was “thin suspension” and the “Salt screening result (anti-solvent)” value ([3]; 1.0 equiv. Hydrobromic acid, Acetone/MTBE) was “thin suspension”. For the same molecule, the “Salt screening result (anti-solvent)” value ([3]; 1.0 equiv. Hydrobromic acid, IPAc/MTBE) was “thin suspension”, the “Salt screening result (slurry crystallization)” value ([3]; 1.0 equiv. Hydrobromic acid, Isopropyl acetate) was “clear solution” and the “Salt screening result (slurry crystallization)” value ([3]; 1.0 equiv. Hydrobromic acid, MeOH) was “− (I-1 Form A) (Free form, counter ions, or physical mixtures)”. The “Salt screening result (slurry crystallization)” value ([3]; 1.0 equiv. L-aspartic acid, Acetone) was “− (physical mixtures (Free form, counter ions, or physical mixtures)”, the “Salt screening result (slurry crystallization)” value ([3]; 1.0 equiv. L-aspartic acid, Isopropyl acetate) was “− (physical mixtures (Free form, counter ions, or physical mixtures)” and the “Salt screening result (slurry crystallization)” value ([3]; 1.0 equiv. L-aspartic acid, MeOH) was “− (physical mixtures (Free form, counter ions, or physical mixtures)”. The “Salt screening result (slurry crystallization)” value ([3]; 1.0 equiv. L-glutamic acid, Acetone) was “− (physical mixtures (Free form, counter ions, or physical mixtures)”, the “Salt screening result (slurry crystallization)” value ([3]; 1.0 equiv. L-glutamic acid, Isopropyl acetate) was “− (physical mixtures (Free form, counter ions, or physical mixtures)” and the “Salt screening result (slurry crystallization)” value ([3]; 1.0 equiv. L-glutamic acid, MeOH) was “− (physical mixtures (Free form, counter ions, or physical mixtures)”. The “Salt screening result (slurry crystallization)” value ([3]; 1.0 equiv. L-malic acid, Acetone) was “thin suspension”, the “Salt screening result (anti-solvent)” value ([3]; 1.0 equiv. L-malic acid, Acetone/MTBE) was “−(I-1 Form B) (Free form, counter ions, or physical mixtures)” and the “Salt screening result (slurry crystallization)” value ([3]; 1.0 equiv. L-malic acid, Isopropyl acetate) was “− (I-1 Form A) (Free form, counter ions, or physical mixtures)”. For the same molecule, the “Salt screening result (slurry crystallization)” value ([3]; 1.0 equiv. L-malic acid, MeOH) was “− (I-1 Form A) (Free form, counter ions, or physical mixtures)”, the “Salt screening result (slurry crystallization)” value ([3]; 1.0 equiv. L-tartaric acid, Acetone) was “thin suspension” and the “Salt screening result (anti-solvent)” value ([3]; 1.0 equiv. L-tartaric acid, Acetone/MTBE) was “−(I-1 Form B) (Free form, counter ions, or physical mixtures)”.

Source: patent publication US20260125374A1, “PI3K-ALPHA INHIBITORS AND METHODS OF MAKING AND USING THE SAME” (Relay Therapeutics, Inc., priority 2021, published 2026)
